Key:
Format in all cases: in vivo
[1] = system: Triticum aestivum; test: Damage to crop plant TRZAW, visual scoring vs untreated
Experimental: (§1) The examples given below were performed in the greenhouse and, in some cases, in field trials.
(§2) The herbicides, or combinations, were applied in cereals after the weeds had emerged naturally using plot sprayers. After application, the results, such as damage to the crop plants and effect on broad-leaved weeds/grass weeds were assessed by means of visual scoring. The herbicidal action was assessed qualitatively and quantitatively by comparing untreated and treated plots on the basis of the effect on plant growth and the development of chloroses and necroses down to the complete destruction of the weeds (0–100%). The application was effected when the crop plants and weeds were in the 2–4 leaf stage. The test was evaluated approximately 4 weeks after application.
(§3) In the greenhouse experiments, the crop plants and broadleaved weeds/grass weeds were grown in No. 13 pots and treated in the 2–4 leaf stage. The pots were subsequently placed in the greenhouse under good growth conditions (temperature, atmospheric humidity, water supply).
(§4) The assessments were carried out similarly to those in the field trials, i.e. visual scoring of the treated plants in comparison with untreated control variants. These assessments were carried out 3 weeks after applying the test preparations and their combinations. The experiments had been set up in two replications.

[2] = system: Gallium aparine; test: Herbicidal action on GALAP, visual scoring vs untreated, post-emergence 2-4 leaf stage; conditions: Table 7
Experimental: as §1, §2, §3, §4
(§5) To assess the combination effects, the activities of the individual components were added and compared with the activity of the mixtures in equal doses. It was frequently observed that the efficacies of the combinations exceeded the total of the individual activities.
(§6) In cases with less clear effects, the expected value was calculated using Colby's formula and compared with the empirically determined result. The calculated efficacy of a combination which is expected in theory is determined is using S.R. Colby's formula: “Calculation of synergistic and antagonistic responses of herbicide combinations”, Weeds 15 (1967), pages 20 to 22.
(§7) [formula] where • X=% damage caused by herbicide A at a rate of ×kg a.i./ha; • Y=% damage caused by herbicide B at a rate of y kg a.i./ha; • Z=% damage caused by a further herbicide C at a rate of z kg a.i./ha; • E=expected value, i.e. expected damage caused by herbicides A+B (or A+B+C) at x+y (or x+y+z) kg a.i./ha.
(§8) Synergistic effects were assumed to be when the empirical value exceeded the expected value. In the case of combinations with individual components with the same active substances, comparisons via the total formula were also possible.

[3] = system: Viola arvensis; test: Herbicidal action on VIOAR, visual scoring vs untreated, post-emergence 2-4 leaf stage; conditions: Table 7
Experimental: as §1, §2, §3, §4, §5, §6, §7, §8

[4] = system: Zea mays; test: Damage to crop plant ZEAMA, visual scoring vs untreated
Experimental: as §1, §2, §3, §4

[5] = system: Abuthilon theophrastis; test: Herbicidal action on ABUTHE, visual scoring vs untreated, post-emergence 2-4 leaf stage; conditions: Table 12; 4.5 g of ai/ha
Experimental: as §1, §2
(§9) In the greenhouse experiments, the crop plants and broadleaved weeds/grass weeds were grown in No. 13 pots and treated in the 2–4 leaf stage. […]
(§10) In cases with less clear effects, the expected value was calculated using Colby's formula and compared with the empirically determined result. The calculated efficacy of a combination which is expected in theory is determined is using S.R. Colby's formula: “Calculation of synergistic and antagonistic responses of herbicide combinations”, Weeds 15 (1967), pages 20 to 22. […]

[6] = system: Ambrosia elatior; test: Herbicidal action on AMBEL, visual scoring vs untreated, post-emergence 2-4 leaf stage; conditions: Table 12; 4.5 g of ai/ha
Experimental: as §1, §2, §9, §10

[7] = system: Echinochloa crus galli; test: Herbicidal action on ECHCR, visual scoring vs untreated, post-emergence 2-4 leaf stage; conditions: Table 8
Experimental: as §1, §2, §3, §4, §5, §6, §7, §8

[8] = system: Centaurea cyanus; test: Herbicidal action on CENCY, visual scoring vs untreated, post-emergence 2-4 leaf stage
Experimental: as §1, §2, §3, §4, §5, §6, §7, §8

[9] = system: Secale cereale; test: Damage to crop plant SECCW, visual scoring vs untreated; conditions: Table 10; 20 g of a.i./ha
Experimental: as §1, §2, §3, §4

[10] = system: Fallopia convolvulus; test: Herbicidal action on FALCO, visual scoring vs untreated, post-emergence 2-4 leaf stage; conditions: Table 9
Experimental: as §1, §2, §3, §4, §5, §6, §7, §8

[11] = system: Phalaris canariensis; test: Herbicidal action on PHACA, visual scoring vs untreated, post-emergence 2-4 leaf stage (greenhouse / field trials); conditions: Table 3
Experimental: as §1, §2, §3, §4, §5, §6, §7, §8

[12] = system: Lolium multiflorum; test: Herbicidal action on LOLMU, visual scoring vs untreated, post-emergence 2-4 leaf stage; conditions: Table 3
Experimental: as §1, §2, §3, §4, §5, §6, §7, §8

Work on `N#Cc1cc(I)c(O)c(I)c1` [B22), 4-hydroxy-3,5-di-iodobenzonitrile] yielded a TRZAW % damage ([1]; in vivo) of 0%, a GALAP % control ([2]; 62.5 g of a.i./ha) of 0% and a GALAP % control ([2]; 125 g of a.i./ha) of 3%. The GALAP % control ([2]; 250 g of a.i./ha) was 10% and the GALAP % control ([2]; 500 g of a.i./ha) was 18%.
`CCOC(=O)COC(=O)c1cc(Oc2ccc(C(F)(F)F)cc2Cl)ccc1[N+](=O)[O-]` [B25), fluoroglycofen-ethyl] gave a TRZAW % damage ([1]; in vivo) of 0%, a VIOAR % control ([3]; 4 g of a.i./ha) of 3% and a VIOAR % control ([3]; 8 g of a.i./ha) of 18%. For the same molecule, the VIOAR % control ([3]; 15 g of a.i./ha) was 38% and the VIOAR % control ([3]; 30 g of a.i./ha) was 62%.
Molecule `CCOC(=O)C(Cl)Cc1cc(-n2nc(C)n(C(F)F)c2=O)c(F)cc1Cl` (stereo not drawn) [B31), carfentrazone-ethyl] has a ZEAMA % damage ([4]; Table 12, 4.5 g of ai/ha) of 5%, an ABUTHE % control [5] of 60% and an AMBEL % control [6] of 0%.
`O=C(Nc1ccc(F)cc1F)c1cccnc1Oc1cccc(C(F)(F)F)c1` [B32), 2′ 4′-difluoro-2-(α,α,α-trifluoro-m-tolyloxy)nicotinanilide] gave a TRZAW % damage ([1]; Table 7, 13 g of a.i./ha) of 0%, a TRZAW % damage ([1]; Table 7, 25 g of a.i./ha) of 0% and a TRZAW % damage ([1]; Table 7, 50 g of a.i./ha) of 0%. For the same molecule, the TRZAW % damage ([1]; Table 7, 100 g of a.i./ha) was 0%, the GALAP % control ([2]; 13 g of a.i./ha) was 0% and the GALAP % control ([2]; 25 g of a.i./ha) was 0%. The GALAP % control ([2]; 50 g of a.i./ha) was 5% and the GALAP % control ([2]; 100 g of a.i./ha) was 5%.
`CCNc1nc(Cl)nc(NC(C)C)n1` [B36), 6-chloro-N-^2-ethyl-N-4-isopropyl-1,3,5-triazine-2,4-diamine] gave an ECHCR % control ([7]; 375 g of a.i./ha) of 0%, an ECHCR % control ([7]; 750 g of a.i./ha) of 0% and an ECHCR % control ([7]; 1500 g of a.i./ha) of 3%. The ECHCR % control ([7]; 3000 g of a.i./ha) was 3%, the ZEAMA % damage ([4]; Table 8, 375 g of a.i./ha) was 0% and the ZEAMA % damage ([4]; Table 8, 750 g of a.i./ha) was 0%. For the same molecule, the ZEAMA % damage ([4]; Table 8, 1500 g of a.i./ha) was 0% and the ZEAMA % damage ([4]; Table 8, 3000 g of a.i./ha) was 0%.
`COc1cc(OC)nc(NC(=O)NS(=O)(=O)N(C)S(C)(=O)=O)n1` [B40), 1-(4,6-dimethoxypyrimidin-2-yl)-3-mesyl (methyl)-sulfamoylurea] showed a CENCY % control ([8]; Table 10, 20 g of a.i./ha) of 25% and an SECCW % damage [9] of 0%.
With `COC(=O)c1ccccc1S(=O)(=O)NC(=O)Nc1nc(C)nc(OC)n1` [B41), metsulfuron-methyl] the TRZAW % damage ([1]; Triticum aestivum, in vivo) was 0%, the TRZAW % damage ([1]; in vivo) was 0% and the CENCY % control ([8]; Table 9, 1 g of a.i./ha) was 0%. It also gave a CENCY % control ([8]; Table 9, 3 g of a.i./ha) of 0%, a CENCY % control ([8]; Table 9, 5 g of a.i./ha) of 0% and a CENCY % control ([8]; Table 9, 10 g of a.i./ha) of 0%.
`COC(=O)c1ccccc1S(=O)(=O)NC(=O)N(C)c1nc(C)nc(OC)n1` [B42), tribenuron-methyl] showed a TRZAW % damage ([1]; Triticum aestivum, in vivo) of 0%, an FALCO % control ([10]; 5 g of a.i./ha) of 88% and an FALCO % control ([10]; 10 g of a.i./ha) of 93%. It also gave an FALCO % control ([10]; 20 g of a.i./ha) of 95% and an FALCO % control ([10]; 40 g of a.i./ha) of 97%.
Work on imazamethabenz-methyl [B8)] yielded a PHACA % control ([11]; 375 g of a.i./ha) of 0%, a PHACA % control ([11]; 750 g of a.i./ha) of 0% and a PHACA % control ([11]; 1500 g of a.i./ha) of 13%. For the same molecule, the LOLMU % control ([12]; 375 g of a.i./ha) was 0%, the LOLMU % control ([12]; 750 g of a.i./ha) was 0% and the LOLMU % control ([12]; 1500 g of a.i./ha) was 20%.

Source: patent publication US7074743B1, “Herbicidal composition comprising 4-iodo-2-[3-(4-methoxy-6-methyl-1,3,5-triazin-2-yl)ureidosulfonyl]benzoic esters” (priority 1995, dated 2006)
